Reference: patent US8551937B2, “Peptide having an extending action for half-life of object peptide in plasma” (priority 2008, dated 2013)
Where a SMILES comes first, the peptide text is derived from it.

experiment: Motilin immunoreactivity concentration in plasma, half-life after intravenous administration (Example 8); details: male, SD, rat, in vivo, iv, 10 nmol/kg
Method: The experiment was carried out using rats into which polyethylene tube (PE-50 manufactured by Clay Adams) was inserted into thigh artery under an anesthetized condition with Nembutal. As to a test system, male SD strain rats (Nippon Charles River) of 7 weeks age were used where one group comprised 3 rats. Human motilin or a derivative thereof in a dose of 10 nmol/kg was administered into tail vein of the rat and the blood before the administration and until 60 minutes after the administration was periodically collected by a polyethylene tube inserted into the thigh artery. To the collected blood were added EDTA (manufactured by Dojin Laboratories) and aprotinin (manufactured by Bayer) as a stabilizer and an anti-coagulant, respectively and the plasma was separated therefrom by centrifugal separation. Motilin immunoreactivity concentration in plasma was measured by a competitive radioimmunoassay (RIA) (FIG. 8). At that time, a rabbit polyclonal antibody (#870623) which specifically recognizes the amino acid numbers 1 to 12 of native motilin shown by SEQ ID No: 102 was used as an antibody and, as a labeled compound, ^125I-[Tyr^7] human motilin was used.

Compound	half-life [min]
CC[C@H](C)[C@H](NC(=O)[C@@H]1CCCN1C(=O)[C@@H](NC(=O)[C@@H](N)Cc1ccccc1)C(C)C)C(=O)N[C@@H](Cc1ccccc1)C(=O)N[C@H](C(=O)N[C@@H](Cc1ccc(O)cc1)C(=O)NCC(=O)N[C@@H](CCC(=O)O)C(=O)N[C@@H](CC(C)C)C(=O)N[C@@H](CCC(N)=O)C(=O)N[C@@H](CCCNC(=N)N)C(=O)N[C@H](C(=O)N[C@@H](CCC(N)=O)C(=O)N[C@@H](CCC(N)=O)C(=O)N[C@@H](CCCNC(=N)N)C(=O)N[C@@H](CCCCN)C(=O)N[C@@H](CCC(=O)O)C(=O)N[C@@H](CCCCN)C(=O)N[C@@H](CCCCN)C(=O)N1CCC[C@H]1C(=O)N1CCC[C@H]1C(=O)N[C@@H](C)C(=O)N[C@@H](CCCCN)C(=O)N[C@@H](CC(C)C)C(=O)N[C@@H](CCC(N)=O)C(=O)N1CCC[C@H]1C(=O)N[C@@H](CCCNC(=N)N)C(=O)O)C(C)C)[C@@H](C)O [Chimeric motilin (N)(MG-dS)] (H-FVPIFTYGELQRVQQRKEKKPPAKLQPR-OH; N-terminus and C-terminus assumed)	9.12
CC[C@H](C)[C@H](NC(=O)[C@@H]1CCCN1C(=O)[C@@H](NC(=O)[C@@H](N)Cc1ccccc1)C(C)C)C(=O)N[C@@H](Cc1ccccc1)C(=O)N[C@H](C(=O)N[C@@H](Cc1ccc(O)cc1)C(=O)NCC(=O)N[C@@H](CCC(=O)O)C(=O)N[C@@H](CC(C)C)C(=O)N[C@@H](CCC(N)=O)C(=O)N[C@@H](CCCNC(=N)N)C(=O)N[C@H](C(=O)N[C@@H](CCC(N)=O)C(=O)N[C@@H](CCC(N)=O)C(=O)N[C@@H](CCCNC(=N)N)C(=O)N[C@@H](CCCCN)C(=O)N[C@@H](CCC(=O)O)C(=O)N[C@@H](Cc1ccccc1)C(=O)N[C@@H](CCCCN)C(=O)N[C@@H](CCCCN)C(=O)N1CCC[C@H]1C(=O)N1CCC[C@H]1C(=O)N[C@@H](C)C(=O)N[C@@H](CCCCN)C(=O)N[C@@H](CC(C)C)C(=O)N[C@@H](CCC(N)=O)C(=O)N1CCC[C@H]1C(=O)N[C@@H](CCCNC(=N)N)C(=O)O)C(C)C)[C@@H](C)O [Chimeric motilin (O)(MG-18S/F)] (H-FVPIFTYGELQRVQQRKEFKKPPAKLQPR-OH; N-terminus and C-terminus assumed)	7.73
CC[C@H](C)[C@H](NC(=O)[C@@H]1CCCN1C(=O)[C@@H](NC(=O)[C@@H](N)Cc1ccccc1)C(C)C)C(=O)N[C@@H](Cc1ccccc1)C(=O)N[C@H](C(=O)N[C@@H](Cc1ccc(O)cc1)C(=O)NCC(=O)N[C@@H](CCC(=O)O)C(=O)N[C@@H](CC(C)C)C(=O)N[C@@H](CCC(N)=O)C(=O)N[C@@H](CCCNC(=N)N)C(=O)N[C@H](C(=O)N[C@@H](CCC(N)=O)C(=O)N[C@@H](CCC(N)=O)C(=O)N[C@@H](CCCNC(=N)N)C(=O)N[C@@H](CCCCN)C(=O)N[C@@H](CCC(=O)O)C(=O)N[C@H](C(=O)N[C@@H](CCCCN)C(=O)N[C@@H](CCCCN)C(=O)N1CCC[C@H]1C(=O)N1CCC[C@H]1C(=O)N[C@@H](C)C(=O)N[C@@H](CCCCN)C(=O)N[C@@H](CC(C)C)C(=O)N[C@@H](CCC(N)=O)C(=O)N1CCC[C@H]1C(=O)N[C@@H](CCCNC(=N)N)C(=O)O)[C@@H](C)O)C(C)C)[C@@H](C)O [Chimeric motilin (P)(MG-18S/T)] (H-FVPIFTYGELQRVQQRKETKKPPAKLQPR-OH; N-terminus and C-terminus assumed)	9.67
CC[C@H](C)[C@H](NC(=O)[C@@H]1CCCN1C(=O)[C@@H](NC(=O)[C@@H](N)Cc1ccccc1)C(C)C)C(=O)N[C@@H](Cc1ccccc1)C(=O)N[C@H](C(=O)N[C@@H](Cc1ccc(O)cc1)C(=O)NCC(=O)N[C@@H](CCC(=O)O)C(=O)N[C@@H](CC(C)C)C(=O)N[C@@H](CCC(N)=O)C(=O)N[C@@H](CCCNC(=N)N)C(=O)N[C@H](C(=O)N[C@@H](CCC(N)=O)C(=O)N[C@@H](CCC(N)=O)C(=O)N[C@@H](CCCNC(=N)N)C(=O)N[C@@H](CCCCN)C(=O)N[C@@H](CCC(=O)O)C(=O)N1CCC[C@H]1C(=O)N[C@@H](CCCCN)C(=O)N[C@@H](CCCCN)C(=O)N1CCC[C@H]1C(=O)N1CCC[C@H]1C(=O)N[C@@H](C)C(=O)N[C@@H](CCCCN)C(=O)N[C@@H](CC(C)C)C(=O)N[C@@H](CCC(N)=O)C(=O)N1CCC[C@H]1C(=O)N[C@@H](CCCNC(=N)N)C(=O)O)C(C)C)[C@@H](C)O [Chimeric motilin (Q)(MG-18S/P)] (H-FVPIFTYGELQRVQQRKEPKKPPAKLQPR-OH; N-terminus and C-terminus assumed)	9.65
CC[C@H](C)[C@H](NC(=O)[C@@H]1CCCN1C(=O)[C@@H](NC(=O)[C@@H](N)Cc1ccccc1)C(C)C)C(=O)N[C@@H](Cc1ccccc1)C(=O)N[C@H](C(=O)N[C@@H](Cc1ccc(O)cc1)C(=O)NCC(=O)N[C@@H](CCC(=O)O)C(=O)N[C@@H](CC(C)C)C(=O)N[C@@H](CCC(N)=O)C(=O)N[C@@H](CCCNC(=N)N)C(=O)N[C@H](C(=O)N[C@@H](CCC(N)=O)C(=O)N[C@@H](CCC(N)=O)C(=O)N[C@@H](CCCNC(=N)N)C(=O)N[C@@H](CCCCN)C(=O)N[C@@H](CCC(=O)O)C(=O)N[C@@H](CC(C)C)C(=O)N[C@@H](CCCCN)C(=O)N[C@@H](CCCCN)C(=O)N1CCC[C@H]1C(=O)N1CCC[C@H]1C(=O)N[C@@H](C)C(=O)N[C@@H](CCCCN)C(=O)N[C@@H](CC(C)C)C(=O)N[C@@H](CCC(N)=O)C(=O)N1CCC[C@H]1C(=O)N[C@@H](CCCNC(=N)N)C(=O)O)C(C)C)[C@@H](C)O [Chimeric motilin (R)(MG-18S/L)] (H-FVPIFTYGELQRVQQRKELKKPPAKLQPR-OH; N-terminus and C-terminus assumed)	9.13
CC[C@H](C)[C@H](NC(=O)[C@@H]1CCCN1C(=O)[C@@H](NC(=O)[C@@H](N)Cc1ccccc1)C(C)C)C(=O)N[C@@H](Cc1ccccc1)C(=O)N[C@H](C(=O)N[C@@H](Cc1ccc(O)cc1)C(=O)NCC(=O)N[C@@H](CCC(=O)O)C(=O)N[C@@H](CC(C)C)C(=O)N[C@@H](CCC(N)=O)C(=O)N[C@@H](CCCNC(=N)N)C(=O)N[C@H](C(=O)N[C@@H](CCC(N)=O)C(=O)N[C@@H](CCC(N)=O)C(=O)N[C@@H](CCCNC(=N)N)C(=O)N[C@@H](CCCCN)C(=O)N[C@@H](CCC(=O)O)C(=O)N[C@@H](C)C(=O)N[C@@H](CCCCN)C(=O)N[C@@H](CCCCN)C(=O)N1CCC[C@H]1C(=O)N1CCC[C@H]1C(=O)N[C@@H](C)C(=O)N[C@@H](CCCCN)C(=O)N[C@@H](CC(C)C)C(=O)N[C@@H](CCC(N)=O)C(=O)N1CCC[C@H]1C(=O)N[C@@H](CCCNC(=N)N)C(=O)O)C(C)C)[C@@H](C)O [Chimeric motilin (S)(MG-18S/A)] (H-FVPIFTYGELQRVQQRKEAKKPPAKLQPR-OH; N-terminus and C-terminus assumed)	9.29
CC[C@H](C)[C@H](NC(=O)[C@@H]1CCCN1C(=O)[C@@H](NC(=O)[C@@H](N)Cc1ccccc1)C(C)C)C(=O)N[C@@H](Cc1ccccc1)C(=O)N[C@H](C(=O)N[C@@H](Cc1ccc(O)cc1)C(=O)NCC(=O)N[C@@H](CCC(=O)O)C(=O)N[C@@H](CC(C)C)C(=O)N[C@@H](CCC(N)=O)C(=O)N[C@@H](CCCNC(=N)N)C(=O)N[C@H](C(=O)N[C@@H](CCC(N)=O)C(=O)N[C@@H](CCC(N)=O)C(=O)N[C@@H](CCCNC(=N)N)C(=O)N[C@@H](CCCCN)C(=O)N[C@@H](CC(N)=O)C(=O)N[C@@H](CO)C(=O)N[C@@H](CCCCN)C(=O)N[C@@H](CCCCN)C(=O)N1CCC[C@H]1C(=O)N1CCC[C@H]1C(=O)N[C@@H](C)C(=O)N[C@@H](CCCCN)C(=O)N[C@@H](CC(C)C)C(=O)N[C@@H](CCC(N)=O)C(=O)N1CCC[C@H]1C(=O)N[C@@H](CCCNC(=N)N)C(=O)O)C(C)C)[C@@H](C)O [Chimeric motilin (T)(MG-17E/N)] (H-FVPIFTYGELQRVQQRKNSKKPPAKLQPR-OH; N-terminus and C-terminus assumed)	5.47
CC[C@H](C)[C@H](NC(=O)[C@@H]1CCCN1C(=O)[C@@H](NC(=O)[C@@H](N)Cc1ccccc1)C(C)C)C(=O)N[C@@H](Cc1ccccc1)C(=O)N[C@H](C(=O)N[C@@H](Cc1ccc(O)cc1)C(=O)NCC(=O)N[C@@H](CCC(=O)O)C(=O)N[C@@H](CC(C)C)C(=O)N[C@@H](CCC(N)=O)C(=O)N[C@@H](CCCNC(=N)N)C(=O)N[C@H](C(=O)N[C@@H](CCC(N)=O)C(=O)N[C@@H](CCC(N)=O)C(=O)N[C@@H](CCCNC(=N)N)C(=O)N[C@@H](CCCCN)C(=O)N[C@@H](CCC(N)=O)C(=O)N[C@@H](CO)C(=O)N[C@@H](CCCCN)C(=O)N[C@@H](CCCCN)C(=O)N1CCC[C@H]1C(=O)N1CCC[C@H]1C(=O)N[C@@H](C)C(=O)N[C@@H](CCCCN)C(=O)N[C@@H](CC(C)C)C(=O)N[C@@H](CCC(N)=O)C(=O)N1CCC[C@H]1C(=O)N[C@@H](CCCNC(=N)N)C(=O)O)C(C)C)[C@@H](C)O [Chimeric motilin (U)(MG-17E/Q)] (H-FVPIFTYGELQRVQQRKQSKKPPAKLQPR-OH; N-terminus and C-terminus assumed)	5.66
CC[C@H](C)[C@H](NC(=O)[C@@H]1CCCN1C(=O)[C@@H](NC(=O)[C@@H](N)Cc1ccccc1)C(C)C)C(=O)N[C@@H](Cc1ccccc1)C(=O)N[C@H](C(=O)N[C@@H](Cc1ccc(O)cc1)C(=O)NCC(=O)N[C@@H](CCC(=O)O)C(=O)N[C@@H](CC(C)C)C(=O)N[C@@H](CCC(N)=O)C(=O)N[C@@H](CCCNC(=N)N)C(=O)N[C@H](C(=O)N[C@@H](CCC(N)=O)C(=O)N[C@@H](CCC(N)=O)C(=O)N[C@@H](CCCNC(=N)N)C(=O)N[C@@H](CCCCN)C(=O)N[C@@H](CCC(=O)O)C(=O)N[C@@H](CO)C(=O)N[C@@H](CCCCN)C(=O)N[C@@H](CCCCN)C(=O)N[C@@H](C)C(=O)N[C@@H](CCCCN)C(=O)N[C@@H](CC(C)C)C(=O)N[C@@H](C)C(=O)N[C@@H](C)C(=O)N[C@@H](CC(C)C)C(=O)N[C@@H](CCCCN)C(=O)N[C@@H](C)C(=O)O)C(C)C)[C@@H](C)O [Chimeric motilin (V) (MG-dPPH1)] (H-FVPIFTYGELQRVQQRKESKKAKLAALKA-OH; N-terminus and C-terminus assumed)	8.94
